Results from patent publication US20090093541A1, “MELANIN ELIMINATOR PREPARATION” (OGA RESEARCH, INC, priority 2002, published 2009).

Columns and labels:
blotches and lentigines = test: Lotion applied to blotches and lentigines (general description); type: in vivo, human; settings: lotion containing 0.5 (w/w)%; applied one or two times daily; about one month
Excerpt: The effect was also noted on blotches formed on the acne scars, showing clear difference compared with the pre-treatment conditions.

[1] = test system: lentigo (1-mm diameter) on the arm; test: Test Example 5: topical application to a lentigo on the arm; type: in vivo, human; settings: topically applied twice daily, preparation according to Preparation Example 1, two months later
Method: To a lentigo (1-mm diameter) on the arm was topically applied twice daily a preparation that was prepared according to Preparation Example 1 except that N-(6,8-dimercaptooctanoyl)histidine sodium/zinc chelate of Example 2 was used instead of N-(6,8-dimercaptooctanoyl)anthranilic acid sodium/zinc chelate of Example 2.

Row | Substance | melanin eliminating effect on blotches and lentigines (fading from black to pale umber or falling off as a scab) (blotches and lentigines) | elimination of black color of lentigo [1]
1 | N-(6,8-dimercaptooctanoyl)-3-aminopropionic acid sodium/zinc chelate compound [Example 10] | satisfactory effects | 
2 | N-(6,8-dimercaptooctanoyl)histidine sodium/zinc chelate compound [Example 2] |  | the black color was found eliminated leaving a subtle scar behind
3 | N-(6,8-dimercaptooctanoyl)anthranilic acid sodium/zinc chelate compound [Reference Example 8] | satisfactory effects | 
